Results from patent EP4516912A1, “HERBICIDE RESISTANT PLANTS” (Eberhard-Karls-Universität Tübingen, priority 2023, dated 2025).
“Also recorded” adds a separate entry of the source.

Experiments:
[1] = test system: thale cress (Arabidopsis thaliana), rapeseed/canola (Brassica napus), barley (Hordeum vulgare), maize (Zea mays), red-root amaranth (Amaranthus retroflexus) …; assay: herbicidal effect in growth medium on model and crop plants and weeds (root growth); type: in vivo; details: tested in parallel
[2] = target: T1, mAtDHQS1 (Arabidopsis thaliana, UniProt Q8VYV7); assay: enzymatic assay with purified recombinant mature AtDHQS1; type: biochemical; details: 100 to 1000 µM; 50 ng purified recombinant enzyme; Figure 1B
T1 construct: The mature i.e. biologically relevant enzyme (mAtDHQS1) with 381 amino acids; (His)6 (C); made in house; host or cells: E. coli
T1 sequence (Q8VYV7 59-442): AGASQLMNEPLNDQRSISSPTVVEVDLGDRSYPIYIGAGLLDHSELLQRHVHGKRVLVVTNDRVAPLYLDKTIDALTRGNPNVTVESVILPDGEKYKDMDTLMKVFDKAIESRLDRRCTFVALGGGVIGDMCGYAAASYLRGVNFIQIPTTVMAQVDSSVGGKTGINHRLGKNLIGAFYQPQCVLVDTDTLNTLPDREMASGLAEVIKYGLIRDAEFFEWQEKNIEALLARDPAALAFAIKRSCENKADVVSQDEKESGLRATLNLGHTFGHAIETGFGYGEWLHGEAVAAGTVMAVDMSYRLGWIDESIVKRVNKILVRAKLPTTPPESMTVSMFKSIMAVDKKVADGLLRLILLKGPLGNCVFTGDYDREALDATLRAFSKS
Procedure: (§1) (A) Schematic representation of mDHSQ1 and pDHQS1 both containing a C-terminal (His)6 tag for purification after heterologous expression of the recombinant proteins in E.coli. aa: amino acid. (B) Relative activity of mDHQS1 (left) and pDHQS1 (right) in the presence of the indicated concentrations of 7dSh. The activity in the absence of 7dSh was set to 1. […] (A) MST fluorescence spectrum of RED dye-labelled mAtDHQS1 (50 nM) in the absence of DAHP (blue line, marked as line 1) or in the presence of 500 µM DAHP (green line, marked as line 2). […] (B) MST fluorescence spectrum of RED dye-labelled mAtDHQS1 (50 nM) in the absence of 7dSh (blue line marked as line 1) or in the presence of 500 µM 7dSh (green line marked as line 2). […] (C) MST fluorescence spectrum of RED dye-labelled mAtDHQS1 (50 nM) in the absence of 7dSh and DAHP (blue line, marked as line 1), in the presence of 250 µM DAHP (green line marked as line 2) or 250 µM DAHP and 250 µM 7dSh (red line marked as line 3). […] (B) As in (A) but the root length was quantified. n = 10 different, lower case letters mean statistically significant differences between the data sets (ANOVA test). (C) Subcellular localization of EGFP-tagged AtDHQS1 (lines 1-1 and 1-2) or EGFP-tagged AtDHQS2 (lines 2-1 and 2-2) in chloroplasts (red fluorescence) of 3-days-old transgenic Arabidopsis plants. […]

[3] = test system: Arabidopsis thaliana, Brassica napus and Hordeum vulgare seedlings; assay: sedoheptulose accumulation in seedling extracts after exposure; type: in vivo; details: extracts after exposure of seedlings of the three species
Description: The finding that AtDHQS1 is not the target of 7dSh, but that the overexpression of AtDHQS1 (-GFP) causes partial tolerance to 7dSh in Arabidopsis seems contradictory, and is in stark contrast to the findings of the prior art. Without being bound to theory, overexpression of AtDHQS1 could lead to a metabolic imbalance in the plant, and thereby could indirectly influence the amount, constitution, intracellular localization, biochemical and physiological activity of counteracting enzymes or proteins, one of which potentially being the true target for 7dSh. This hypothesis is in agreement with a recent finding that a strong accumulation of sedoheptulose was detectable in the extracts after exposure of Arabidopsis thaliana, Brassica napus and Hordeum vulgare seedlings to 7dSh. The accumulation was up to 60 times higher than in the untreated seedlings of the three species. Sedoheptulose is a ketoheptose - a monosaccharide with seven carbon atoms and a ketone functional group and one of the few heptoses found in nature. Sedoheptulose is not a metabolite of the shikimate pathway and can in no way serve as substrate for AtDHQS1.

[4] = target: T1, mAtDHQS1; assay: MicroScale Thermophoresis (MST) binding and competition
Procedure: (§2) (A) Schematic representation of mDHSQ1 and pDHQS1 both containing a C-terminal (His)6 tag for purification after heterologous expression of the recombinant proteins in E.coli. aa: amino acid. (B) Relative activity of mDHQS1 (left) and pDHQS1 (right) in the presence of the indicated concentrations of 7dSh. The activity in the absence of 7dSh was set to 1. […] (A) MST fluorescence spectrum of RED dye-labelled mAtDHQS1 (50 nM) in the absence of DAHP (blue line, marked as line 1) or in the presence of 500 µM DAHP (green line, marked as line 2). […] (B) MST fluorescence spectrum of RED dye-labelled mAtDHQS1 (50 nM) in the absence of 7dSh (blue line marked as line 1) or in the presence of 500 µM 7dSh (green line marked as line 2). No downward shift is detectable, showing that there is no binding. (C) MST fluorescence spectrum of RED dye-labelled mAtDHQS1 (50 nM) in the absence of 7dSh and DAHP (blue line, marked as line 1), in the presence of 250 µM DAHP (green line marked as line 2) or 250 µM DAHP and 250 µM 7dSh (red line marked as line 3). […] (A) Growth of 3-days-old wild type plants (Col-0) or two independent transgenic lines each ectopically overexpressing either EGFP-tagged AtDHQS1 (1-1, 1-2) or EGFP-tagged AtDHQS2 (2-1, 2-2) after 3 days on control plates (mock) or on plates containing 250 µM 7dSh. (B) As in (A) but the root length was quantified. n = 10 different, lower case letters mean statistically significant differences between the data sets (ANOVA test). (C) Subcellular localization of EGFP-tagged AtDHQS1 (lines 1-1 and 1-2) or EGFP-tagged AtDHQS2 (lines 2-1 and 2-2) in chloroplasts (red fluorescence) of 3-days-old transgenic Arabidopsis plants. […] (Left) relative AtDHQS1 transcript levels in the indicated transgenic Arabidopsis lines as determined by qRT-PCR using AtDHQS1 gene-specific primers. AtDHQS1 transcript levels are about ten times higher than in wild type (Col-0). (Right) relative AtDHQS2 transcript levels in the indicated transgenic Arabidopsis lines as determined by qRT-PCR using AtDHQS2 gene-specific primers. […]

[5] = test system: Arabidopsis wild type seedlings or transgenic lines overexpressing AtDHQS1-GFP or AtDHQS2-GFP; assay: comparative root growth experiments on growth medium; type: in vivo, Arabidopsis thaliana; details: 250 µM
Procedure: as §2

[6] = target: T2, pAtDHQS1 (Arabidopsis thaliana, UniProt Q8VYV7); assay: enzymatic assay with purified recombinant AtDHQS1 still containing the transit peptide; type: biochemical; details: 100 to 1000 µM; 50 ng purified recombinant enzyme; Figure 1B
T2 construct: a version that still has the 61 amino acid long transit peptide for plastid import (pAtDHQS1); (His)6 (C); made in house; host or cells: E. coli
T2 sequence (Q8VYV7 59-442): T1 sequence (Q8VYV7 59-442)
Procedure: as §1

[7] = substrate: O=C(O)C(=O)C[C@@H](O)[C@H](O)[C@H](O)COP(=O)(O)O; assay: enzymatic assay with purified recombinant mature AtDHQS1; type: biochemical, Arabidopsis thaliana; details: other: substrate DAHP; mAtDHQS1
Procedure: as §1

[8] = substrate: O=C(O)C(=O)C[C@@H](O)[C@H](O)[C@H](O)COP(=O)(O)O; assay: enzymatic assay with purified recombinant AtDHQS1 still containing the transit peptide; type: biochemical, Arabidopsis thaliana; details: other: substrate DAHP; pAtDHQS1
Procedure: as §1

[9] = 3-days-old seedlings, two independent lines

## O=C(O)CNCP(=O)(O)O [glyphosate]
[1]
  effective concentrations compared with 7dSh: comparable

## C[C@@H](O)[C@@H](O)[C@@H](O)[C@H](O)C(=O)CO [7dSh, 7-deoxy-sedoheptulose]
[2]
  effect on the activity of mAtDHQS1: not inhibited; also recorded: no effect
[3]
  accumulation of sedoheptulose: up to 60 times higher than in the untreated seedlings
[4]; RED dye-labelled mAtDHQS1 (50 nM), 250 µM DAHP and 250 µM 7dSh, Fig. 2 C
  competition with DAHP for binding to mAtDHQS1 (MST): no competition; also recorded: not able to displace DAHP
[4]; RED dye-labelled mAtDHQS1 (50 nM), 500 µM ligand, Fig. 2 A/B
  binding to mAtDHQS1 (MST): no binding; also recorded: no interaction
[5]; 3-days-old Arabidopsis wild type (Col-0) seedlings, 3 days
  root growth of wild type seedlings: completely inhibited
[5]; [9]
  tolerance of seedlings of AtDHQS2-GFP transgenic lines: no tolerance
  tolerance of seedlings of transgenic lines overexpressing AtDHQS1-GFP: partial but not complete tolerance
[6]
  effect on the activity of pAtDHQS1: not inhibited; also recorded: no effect

## O=C(O)C(=O)C[C@@H](O)[C@H](O)[C@H](O)COP(=O)(O)O [DAHP, 3-deoxy-D-arabino-heptulosonate-7-phosphate, reference compound]
[4]
  Kd: 33 µM

B1: mAtDHQS1 (Arabidopsis thaliana) (protein)
chain: T1 sequence (Q8VYV7 59-442)
notes: The mature i.e. biologically relevant enzyme (mAtDHQS1) with 381 amino acids; (His)6 (C); made in house; host or cells: E. coli
[7]
  Km: 8.3 µM

B2: pAtDHQS1 (Arabidopsis thaliana) (protein)
chain: T1 sequence (Q8VYV7 59-442)
notes: a version that still has the 61 amino acid long transit peptide for plastid import (pAtDHQS1); (His)6 (C); made in house; host or cells: E. coli
[8]
  Km: 2.9 µM
